What was measured:
Assay in all cases: steady-state kinetics, DCIP reduction (spectrophotometric)
Assay type in all cases: biochemical, Neurospora crassa
Settings in all cases: 2,6-dichloroindophenol as saturating co-substrate; pH 6.0 citrate-phosphate; 30 °C
CDHABB = test system: T1, CDHABB
T1 construct: gene cdhIIB; single fused chain: CYT of NcCDHIIA + linker and DH of NcCDHIIB, no CBM1; expressed in Pichia pastoris KM71H; with Cellobiose dehydrogenase
Excerpt: steady-state kinetics, DCIP reduction (spectrophotometric) on CDHABB

CDHBBA = test system: T2, CDHBBA
T2 construct: gene cdhIIA; single fused chain: CYT and linker of NcCDHIIB + DH and CBM1 of NcCDHIIA; expressed in Pichia pastoris KM71H; with Cellobiose dehydrogenase
Excerpt: steady-state kinetics, DCIP reduction (spectrophotometric) on CDHBBA

CDHAAB = test system: T3, CDHAAB
T3 construct: gene cdhIIB; single fused chain: CYT and linker of NcCDHIIA + DH of NcCDHIIB, no CBM1; expressed in Pichia pastoris KM71H; with Cellobiose dehydrogenase
Excerpt: steady-state kinetics, DCIP reduction (spectrophotometric) on CDHAAB

CDHBAA = test system: T4, CDHBAA
T4 construct: gene cdhIIA; single fused chain: CYT of NcCDHIIB + linker, DH and CBM1 of NcCDHIIA; expressed in Pichia pastoris KM71H; with Cellobiose dehydrogenase
Excerpt: steady-state kinetics, DCIP reduction (spectrophotometric) on CDHBAA

OC[C@H]1O[C@@H](O[C@H]2[C@H](O)[C@@H](O)C(O)O[C@@H]2CO)[C@H](O)[C@@H](O)[C@@H]1O (stereo partly shown) [cellobiose]
Km (CDHABB): 26 ± 3 µM | Km (CDHBBA): 75 ± 5 µM | Km (CDHAAB): 46 ± 3 µM | Km (CDHBAA): 57 ± 6 µM

Source: PMC7818652 (ACS Catalysis, 2020)
